# Measurements reported in ChEMBL document CHEMBL5058649, “Data for DCP probe BAY 1816032” (2022).
# Active and inactive are the calls of the source. The rule behind the calls is not given here.
# Key:
# [1] = target: Macrophage colony-stimulating factor 1 receptor (Homo sapiens) (UniProt P07333); assay: CSF1R DiscoveRx kinase panel; conditions: Compound concentration 1.0 uM
# [2] = target: Serine/threonine-protein kinase WNK1 (Homo sapiens) (UniProt Q9H4A3); assay: WNK1 DiscoveRx kinase panel; conditions: Compound concentration 1.0 uM
# [3] = target: Serine/threonine-protein kinase SBK1 (Homo sapiens) (UniProt Q52WX2); assay: SBK1 DiscoveRx kinase panel; conditions: Compound concentration 1.0 uM
# [4] = target: Myosin light chain kinase (Homo sapiens) (UniProt Q32MK0); assay: MLCK DiscoveRx kinase panel; conditions: Compound concentration 1.0 uM
# [5] = target: Serine/threonine-protein kinase NIM1 (Homo sapiens) (UniProt Q8IY84); assay: NIM1 DiscoveRx kinase panel; conditions: Compound concentration 1.0 uM
# [6] = target: Dual specificity mitogen-activated protein kinase kinase 2 (Homo sapiens) (UniProt P36507); assay: MEK2 DiscoveRx kinase panel; conditions: Compound concentration 1.0 uM
# [7] = target: Histamine H3 receptor (Homo sapiens) (UniProt Q9Y5N1); conditions: Compound concentration 10.0 uM
# [8] = target: Tyrosine-protein kinase CSK (Homo sapiens) (UniProt P41240); assay: CSK DiscoveRx kinase panel; conditions: Compound concentration 1.0 uM
# [9] = target: GABA-A receptor; anion channel (Rattus norvegicus) (UniProt O09028+P15431+P18506+P18508+P19969+P20236+P23574+P23576+P28471+P28473+P30191+P62813+P63079+P63138+Q91ZM7+Q9ES14); conditions: Compound concentration 10.0 uM
# [10] = target: Microtubule-associated serine/threonine-protein kinase 1 (Homo sapiens) (UniProt Q9Y2H9); assay: MAST1 DiscoveRx kinase panel; conditions: Compound concentration 1.0 uM
# [11] = target: Cyclin-dependent kinase 16 (Homo sapiens) (UniProt Q00536); assay: PCTK1 DiscoveRx kinase panel; conditions: Compound concentration 1.0 uM
# [12] = target: Sodium-dependent serotonin transporter (Homo sapiens) (UniProt P31645); assay: Transporter, Serotonin (5- Hydroxytryptamine) (SERT) Eurofins-Panlabs radioligand binding assay; conditions: Compound concentration 10.0 uM
# [13] = target: Melanocyte-stimulating hormone receptor (Homo sapiens) (UniProt Q01726); assay: Melanocortin MC1 Eurofins-Panlabs radioligand binding assay; conditions: Compound concentration 10.0 uM
# Chain of Melanocyte-stimulating hormone receptor (Homo sapiens) (Q01726 whole entry, looked up): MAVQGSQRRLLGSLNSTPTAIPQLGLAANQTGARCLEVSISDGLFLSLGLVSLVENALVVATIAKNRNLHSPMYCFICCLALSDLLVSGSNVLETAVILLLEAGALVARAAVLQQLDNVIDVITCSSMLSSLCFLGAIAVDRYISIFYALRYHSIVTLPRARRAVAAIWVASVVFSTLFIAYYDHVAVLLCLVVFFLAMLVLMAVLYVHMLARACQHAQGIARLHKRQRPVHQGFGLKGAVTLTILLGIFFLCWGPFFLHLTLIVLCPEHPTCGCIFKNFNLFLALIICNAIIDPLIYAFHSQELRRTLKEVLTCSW
# [14] = target: Beta-1 adrenergic receptor (Homo sapiens) (UniProt P08588); conditions: Compound concentration 10.0 uM
# Chain of Beta-1 adrenergic receptor (Homo sapiens) (P08588 whole entry, looked up): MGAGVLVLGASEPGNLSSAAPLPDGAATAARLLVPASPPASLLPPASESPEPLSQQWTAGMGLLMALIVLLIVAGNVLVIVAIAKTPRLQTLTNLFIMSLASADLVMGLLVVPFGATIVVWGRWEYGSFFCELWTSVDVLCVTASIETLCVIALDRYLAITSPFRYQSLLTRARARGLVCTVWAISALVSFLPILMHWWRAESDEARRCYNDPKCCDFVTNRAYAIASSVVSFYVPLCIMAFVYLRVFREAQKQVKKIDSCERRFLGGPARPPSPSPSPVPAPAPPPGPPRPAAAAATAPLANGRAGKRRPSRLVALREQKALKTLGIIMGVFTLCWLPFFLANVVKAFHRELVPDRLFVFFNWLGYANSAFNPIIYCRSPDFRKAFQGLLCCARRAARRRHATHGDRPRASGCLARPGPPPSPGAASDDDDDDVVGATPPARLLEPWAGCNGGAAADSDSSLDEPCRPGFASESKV
# [15] = target: Insulin receptor (Homo sapiens) (UniProt P06213); assay: INSR DiscoveRx kinase panel; conditions: Compound concentration 1.0 uM
# [16] = target: D(2) dopamine receptor (Homo sapiens) (UniProt P14416); conditions: Compound concentration 10.0 uM
# Chain of D(2) dopamine receptor (Homo sapiens) (P14416 whole entry): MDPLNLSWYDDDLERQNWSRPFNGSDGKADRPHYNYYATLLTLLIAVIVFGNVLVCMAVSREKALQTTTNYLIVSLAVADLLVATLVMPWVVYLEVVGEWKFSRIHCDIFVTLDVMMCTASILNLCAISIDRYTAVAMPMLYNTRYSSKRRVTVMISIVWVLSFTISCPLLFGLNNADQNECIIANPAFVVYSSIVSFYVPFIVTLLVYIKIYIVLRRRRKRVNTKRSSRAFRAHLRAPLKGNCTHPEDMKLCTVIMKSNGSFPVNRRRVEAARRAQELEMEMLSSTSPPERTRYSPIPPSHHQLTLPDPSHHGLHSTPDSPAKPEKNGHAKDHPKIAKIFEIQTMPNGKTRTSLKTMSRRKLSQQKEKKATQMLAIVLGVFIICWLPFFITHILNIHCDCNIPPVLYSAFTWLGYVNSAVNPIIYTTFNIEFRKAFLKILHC
# [17] = target: Serine/threonine-protein kinase 36 (Homo sapiens) (UniProt Q9NRP7); assay: STK36 DiscoveRx kinase panel; conditions: Compound concentration 1.0 uM
# [18] = target: Platelet-derived growth factor receptor alpha (Homo sapiens) (UniProt P16234); assay: PDGFRA DiscoveRx kinase panel; conditions: Compound concentration 1.0 uM
# [19] = target: BDNF/NT-3 growth factors receptor (Homo sapiens) (UniProt Q16620); assay: TRKB DiscoveRx kinase panel; conditions: Compound concentration 1.0 uM
# [20] = target: Beta-adrenergic receptor kinase 1 (Homo sapiens) (UniProt P25098); assay: GRK2 DiscoveRx kinase panel; conditions: Compound concentration 1.0 uM
# [21] = target: Serine/threonine-protein kinase Nek9 (Homo sapiens) (UniProt Q8TD19); assay: NEK9 DiscoveRx kinase panel; conditions: Compound concentration 1.0 uM
# [22] = target: Serine/threonine-protein kinase TAO3 (Homo sapiens) (UniProt Q9H2K8); assay: TAOK3 DiscoveRx kinase panel; conditions: Compound concentration 1.0 uM
# [23] = target: Serine/threonine-protein kinase PAK 2 (Homo sapiens) (UniProt Q13177); assay: PAK2 DiscoveRx kinase panel; conditions: Compound concentration 1.0 uM
# [24] = target: Ephrin type-B receptor 6 (Homo sapiens) (UniProt O15197); assay: EPHB6 DiscoveRx kinase panel; conditions: Compound concentration 1.0 uM
# [25] = target: Tyrosine-protein kinase JAK3 (Homo sapiens) (UniProt P52333); assay: JAK3(JH1domain-catalytic) DiscoveRx kinase panel; conditions: Compound concentration 1.0 uM
# [26] = target: T1, Mitotic checkpoint serine/threonine-protein kinase BUB1 (Homo sapiens, UniProt O43683); assay: BUB1 biochemical assay (low ATP)
# T1 sequence (O43683 whole entry): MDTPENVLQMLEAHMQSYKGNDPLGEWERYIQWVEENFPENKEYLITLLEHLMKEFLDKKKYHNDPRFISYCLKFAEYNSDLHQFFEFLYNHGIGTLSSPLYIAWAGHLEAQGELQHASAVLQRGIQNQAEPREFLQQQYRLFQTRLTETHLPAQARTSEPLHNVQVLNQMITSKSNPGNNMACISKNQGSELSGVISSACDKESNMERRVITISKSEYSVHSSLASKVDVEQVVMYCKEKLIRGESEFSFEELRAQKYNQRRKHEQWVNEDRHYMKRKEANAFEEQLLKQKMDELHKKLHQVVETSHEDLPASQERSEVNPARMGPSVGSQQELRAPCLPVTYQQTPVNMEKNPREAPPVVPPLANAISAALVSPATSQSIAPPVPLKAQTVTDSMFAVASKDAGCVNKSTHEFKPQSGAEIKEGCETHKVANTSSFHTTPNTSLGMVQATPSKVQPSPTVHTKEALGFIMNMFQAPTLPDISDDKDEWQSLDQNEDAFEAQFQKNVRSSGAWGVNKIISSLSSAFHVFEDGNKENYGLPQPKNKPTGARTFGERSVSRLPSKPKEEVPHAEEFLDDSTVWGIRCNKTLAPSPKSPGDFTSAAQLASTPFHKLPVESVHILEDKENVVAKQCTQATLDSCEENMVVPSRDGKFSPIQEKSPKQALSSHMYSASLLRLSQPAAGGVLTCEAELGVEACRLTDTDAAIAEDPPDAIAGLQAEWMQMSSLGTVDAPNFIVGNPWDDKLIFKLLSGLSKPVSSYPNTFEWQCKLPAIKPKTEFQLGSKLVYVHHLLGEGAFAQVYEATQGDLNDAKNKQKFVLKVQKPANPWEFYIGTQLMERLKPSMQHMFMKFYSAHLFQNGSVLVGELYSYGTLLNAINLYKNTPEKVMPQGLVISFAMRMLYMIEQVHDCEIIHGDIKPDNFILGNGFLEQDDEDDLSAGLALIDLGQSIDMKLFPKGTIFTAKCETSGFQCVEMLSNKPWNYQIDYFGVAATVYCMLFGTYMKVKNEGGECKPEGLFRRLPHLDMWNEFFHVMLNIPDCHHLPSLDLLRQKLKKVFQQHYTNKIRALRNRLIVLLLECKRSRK
# [27] = target: Aurora kinase A (Homo sapiens) (UniProt O14965); assay: AURKA DiscoveRx kinase panel; conditions: Compound concentration 1.0 uM
# Chain of Aurora kinase A (Homo sapiens) (O14965 whole entry): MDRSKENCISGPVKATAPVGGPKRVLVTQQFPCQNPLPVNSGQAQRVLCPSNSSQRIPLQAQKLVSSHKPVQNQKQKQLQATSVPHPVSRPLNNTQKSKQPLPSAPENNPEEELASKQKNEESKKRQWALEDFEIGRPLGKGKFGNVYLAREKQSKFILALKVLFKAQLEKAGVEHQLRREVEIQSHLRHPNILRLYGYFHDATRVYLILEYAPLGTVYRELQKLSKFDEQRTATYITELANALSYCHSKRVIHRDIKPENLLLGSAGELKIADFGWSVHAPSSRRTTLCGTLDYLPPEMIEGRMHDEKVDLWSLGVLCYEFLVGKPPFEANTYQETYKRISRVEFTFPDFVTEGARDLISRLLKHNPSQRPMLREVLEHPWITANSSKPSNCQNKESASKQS
# [28] = target: Citron Rho-interacting kinase (Homo sapiens) (UniProt O14578); assay: CIT DiscoveRx kinase panel; conditions: Compound concentration 1.0 uM
# [29] = target: D(4) dopamine receptor (Homo sapiens) (UniProt P21917); conditions: Compound concentration 10.0 uM
# [30] = target: Cyclin-dependent kinase 4/cyclin D1 (Homo sapiens) (UniProt P11802+P24385); assay: CDK4-cyclinD1 DiscoveRx kinase panel; format: protein-complex assay; conditions: Compound concentration 1.0 uM
# [31] = target: Phosphatidylinositol 5-phosphate 4-kinase type-2 gamma (Homo sapiens) (UniProt Q8TBX8); assay: PIP5K2C DiscoveRx kinase panel; conditions: Compound concentration 1.0 uM
# HeLa = assay: HeLa cell line Proliferation assay; format: functional, Homo sapiens; conditions: time 4 day
# [32] = target: Tyrosine-protein kinase receptor Tie-1 (Homo sapiens) (UniProt P35590); assay: TIE1 DiscoveRx kinase panel; conditions: Compound concentration 1.0 uM
# [33] = target: 5-hydroxytryptamine receptor 1A (Homo sapiens) (UniProt P08908); assay: Serotonin (5-Hydroxytryptamine) 5-HT1A Eurofins-Panlabs radioligand binding assay; conditions: Compound concentration 10.0 uM
# [34] = target: Casein kinase I isoform alpha-like (Homo sapiens) (UniProt Q8N752); assay: CSNK1A1L DiscoveRx kinase panel; conditions: Compound concentration 1.0 uM
# [35] = target: Aurora kinase C (Homo sapiens) (UniProt Q9UQB9); assay: AURKC DiscoveRx kinase panel; conditions: Compound concentration 1.0 uM
# [36] = target: Dual specificity testis-specific protein kinase 1 (Homo sapiens) (UniProt Q15569); assay: TESK1 DiscoveRx kinase panel; conditions: Compound concentration 1.0 uM
# [37] = target: Mitogen-activated protein kinase kinase kinase 15 (Homo sapiens) (UniProt Q6ZN16); assay: MAP3K15 DiscoveRx kinase panel; conditions: Compound concentration 1.0 uM
# [38] = target: T1, Mitotic checkpoint serine/threonine-protein kinase BUB1; assay: BUB1 surface plasmon resonance (SPR) assay
# [39] = target: Dual specificity mitogen-activated protein kinase kinase 7 (Homo sapiens) (UniProt O14733); assay: MKK7 DiscoveRx kinase panel; conditions: Compound concentration 1.0 uM
# [40] = target: Serine/threonine-protein kinase D3 (Homo sapiens) (UniProt O94806); assay: PRKD3 DiscoveRx kinase panel; conditions: Compound concentration 1.0 uM
# [41] = target: Serine/threonine-protein kinase RIO2 (Homo sapiens) (UniProt Q9BVS4); assay: RIOK2 DiscoveRx kinase panel; conditions: Compound concentration 1.0 uM
# [42] = target: Serine/threonine-protein kinase tousled-like 2 (Homo sapiens) (UniProt Q86UE8); assay: TLK2 DiscoveRx kinase panel; conditions: Compound concentration 1.0 uM
# [43] = target: cAMP-dependent protein kinase catalytic subunit beta (Homo sapiens) (UniProt P22694); assay: PKAC-beta DiscoveRx kinase panel; conditions: Compound concentration 1.0 uM
# [44] = target: Receptor-interacting serine/threonine-protein kinase 2 (Homo sapiens) (UniProt O43353); assay: RIPK2 DiscoveRx kinase panel; conditions: Compound concentration 1.0 uM
# Chain of Receptor-interacting serine/threonine-protein kinase 2 (Homo sapiens) (O43353 whole entry): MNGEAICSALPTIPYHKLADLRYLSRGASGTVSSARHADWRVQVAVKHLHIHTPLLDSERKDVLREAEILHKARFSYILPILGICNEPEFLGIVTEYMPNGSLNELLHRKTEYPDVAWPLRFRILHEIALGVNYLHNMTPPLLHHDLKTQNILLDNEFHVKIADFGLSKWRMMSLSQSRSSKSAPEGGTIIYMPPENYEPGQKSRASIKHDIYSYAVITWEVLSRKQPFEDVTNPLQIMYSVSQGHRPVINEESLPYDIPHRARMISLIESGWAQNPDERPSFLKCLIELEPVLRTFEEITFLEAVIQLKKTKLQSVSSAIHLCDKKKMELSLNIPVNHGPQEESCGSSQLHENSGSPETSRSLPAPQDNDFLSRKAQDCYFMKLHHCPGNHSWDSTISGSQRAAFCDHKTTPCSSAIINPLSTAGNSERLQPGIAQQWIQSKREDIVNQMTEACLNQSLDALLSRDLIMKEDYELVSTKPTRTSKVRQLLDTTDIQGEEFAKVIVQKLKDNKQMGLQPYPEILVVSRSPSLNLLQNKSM
# [45] = target: Serine/threonine-protein kinase PLK3 (Homo sapiens) (UniProt Q9H4B4); assay: PLK3 DiscoveRx kinase panel; conditions: Compound concentration 1.0 uM
# Chain of Serine/threonine-protein kinase PLK3 (Homo sapiens) (Q9H4B4 whole entry, looked up): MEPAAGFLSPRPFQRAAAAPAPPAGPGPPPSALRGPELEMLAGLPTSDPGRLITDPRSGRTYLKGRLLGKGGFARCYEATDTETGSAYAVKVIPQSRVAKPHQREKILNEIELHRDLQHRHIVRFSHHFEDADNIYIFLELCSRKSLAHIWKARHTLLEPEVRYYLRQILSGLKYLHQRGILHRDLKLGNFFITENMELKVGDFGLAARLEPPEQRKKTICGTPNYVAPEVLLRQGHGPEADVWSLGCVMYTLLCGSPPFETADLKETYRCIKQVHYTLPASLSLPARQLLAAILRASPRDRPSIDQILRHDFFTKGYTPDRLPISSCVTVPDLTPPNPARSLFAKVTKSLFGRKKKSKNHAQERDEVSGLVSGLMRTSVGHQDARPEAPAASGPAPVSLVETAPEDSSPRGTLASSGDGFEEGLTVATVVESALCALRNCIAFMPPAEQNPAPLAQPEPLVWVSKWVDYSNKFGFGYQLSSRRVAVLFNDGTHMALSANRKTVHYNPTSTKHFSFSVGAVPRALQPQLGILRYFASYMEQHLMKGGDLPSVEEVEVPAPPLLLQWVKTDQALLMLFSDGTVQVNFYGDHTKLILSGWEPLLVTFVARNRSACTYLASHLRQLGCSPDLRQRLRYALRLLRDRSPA
# [46] = target: SRSF protein kinase 3 (Homo sapiens) (UniProt Q9UPE1); assay: SRPK3 DiscoveRx kinase panel; conditions: Compound concentration 1.0 uM
# [47] = target: Homeodomain-interacting protein kinase 1 (Homo sapiens) (UniProt Q86Z02); assay: HIPK1 DiscoveRx kinase panel; conditions: Compound concentration 1.0 uM
# [48] = target: Serine/threonine-protein kinase STK11 (Homo sapiens) (UniProt Q15831); assay: LKB1 DiscoveRx kinase panel; conditions: Compound concentration 1.0 uM
# Chain of Macrophage colony-stimulating factor 1 receptor (Homo sapiens) (P07333 whole entry): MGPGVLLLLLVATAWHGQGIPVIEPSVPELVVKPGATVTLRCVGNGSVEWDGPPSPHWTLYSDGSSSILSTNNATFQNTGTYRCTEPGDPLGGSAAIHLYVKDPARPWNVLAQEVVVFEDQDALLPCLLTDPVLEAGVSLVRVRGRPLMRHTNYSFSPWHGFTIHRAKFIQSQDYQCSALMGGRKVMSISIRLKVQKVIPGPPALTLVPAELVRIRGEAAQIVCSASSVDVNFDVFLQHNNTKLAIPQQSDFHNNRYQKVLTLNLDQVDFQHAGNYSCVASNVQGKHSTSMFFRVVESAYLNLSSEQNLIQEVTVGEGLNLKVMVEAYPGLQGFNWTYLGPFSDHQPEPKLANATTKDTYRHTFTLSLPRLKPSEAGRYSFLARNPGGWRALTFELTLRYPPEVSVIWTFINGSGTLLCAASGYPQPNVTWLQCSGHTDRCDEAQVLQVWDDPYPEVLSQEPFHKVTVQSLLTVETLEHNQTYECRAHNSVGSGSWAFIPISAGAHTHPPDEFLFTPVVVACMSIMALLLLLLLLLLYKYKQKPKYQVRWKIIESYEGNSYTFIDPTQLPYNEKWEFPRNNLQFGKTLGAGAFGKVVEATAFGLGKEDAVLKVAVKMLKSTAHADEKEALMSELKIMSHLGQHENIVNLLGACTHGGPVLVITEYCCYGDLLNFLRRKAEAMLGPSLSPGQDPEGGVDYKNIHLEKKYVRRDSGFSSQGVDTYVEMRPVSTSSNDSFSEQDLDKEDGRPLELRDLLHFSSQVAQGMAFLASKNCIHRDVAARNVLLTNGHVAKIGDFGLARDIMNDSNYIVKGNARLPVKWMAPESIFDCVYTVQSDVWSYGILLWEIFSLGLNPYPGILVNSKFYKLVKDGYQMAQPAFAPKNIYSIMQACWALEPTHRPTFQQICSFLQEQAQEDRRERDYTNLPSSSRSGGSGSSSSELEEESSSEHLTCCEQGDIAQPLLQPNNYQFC
smiles,measurement,setting,value
COc1cnccc1Nc1nc(-c2nn(Cc3c(F)cc(OCCO)cc3F)c3ccccc23)ncc1OC,residual activity,[1],99%
same,residual activity,[2],85%
same,residual activity,[3],100%
same,residual activity,[4],72%
same,residual activity,[5],88%
same,residual activity,[6],94%
same,inhibition,[7],21.3%
same,residual activity,[8],77%
same,inhibition,[9],60%
same,residual activity,[10],63%
same,residual activity,[11],100%
same,inhibition,[12],4%
same,inhibition,[13],4%
same,inhibition,[14],-6.28%
same,residual activity,[15],97%
same,inhibition,[16],3.66%
same,residual activity,[17],68%
same,residual activity,[18],100%
same,residual activity,[19],100%
same,residual activity,[20],100%
same,residual activity,[21],82%
same,residual activity,[22],100%
same,residual activity,[23],100%
same,residual activity,[24],100%
same,residual activity,[25],87%
same,IC50,[26],6.5 nM (active)
same,residual activity,[27],100%
same,residual activity,[28],52%
same,inhibition,[29],1.38%
same,residual activity,[30],100%
same,residual activity,[31],100%
same,Cell Proliferation IC50,HeLa,1600 nM
same,residual activity,[32],65%
same,inhibition,[33],0%
same,residual activity,[34],89%
same,residual activity,[35],100%
same,residual activity,[36],57%
same,residual activity,[37],87%
same,Kd,[38],2.1 nM (active)
same,residual activity,[39],98%
same,residual activity,[40],79%
same,residual activity,[41],100%
same,residual activity,[42],96%
same,residual activity,[43],100%
same,residual activity,[44],82%
same,residual activity,[45],100%
same,residual activity,[46],87%
same,residual activity,[47],94%
same,residual activity,[48],100%
